Each structure is given as a SMILES string. Peptide text beside a SMILES is read from it.

The record followed here is patent US12178885B2, “Method for mediating targeted delivery of a composition to the brain of a subject in need thereof” (Fudan University, priority 2018, dated 2024).

One data set concerns orthotopic U87 glioma. Briefly: anti-glioma efficacy: median survival time of orthotopic tumor model mice. In kind it is in vivo, nude mice. To be noted: tail vein, adriamycin 2 mg/kg per injection, days 7, 9, 11, 13, 15; saline group 27 days. Here is the method:
By injecting SP modified delivery system, unmodified polypeptide delivery system, free drug and normal saline into nude mice bearing orthotopic U87 glioma model via tail vein, the anti-tumor effect of SP modified delivery system in vivo is evaluated with the median survival time, apoptosis of tumor tissue and neovascularization density as indicators.
Establishment of glioma model in nude mice: Took U87 cells in logarithmic growth phase, digested and counted the cells, suspended them with appropriate amount of PBS buffer, inoculated 6×10^5 cells (dispersed in 5 μL PBS buffer) to each nude mouse. The nude mice was anesthetized with 7% chloral hydrate before the experiment, fixed with a brain stereotactic instrument, and inoculated the suspended cells to the striatum (i.e. 0.6 mm forward, 1.8 mm to the right, and 3 mm deep of the anterior fontanelle). Regularly observed the state of nude mice after operation.
Nude mice with orthotopic brain tumor model were randomly divided into 4 groups (n=13), and their body weight was recorded on the 7th, 9th, 11th, 13th and 15th day, respectively.

The subject of another data set is neural cell line PC12. To be noted: gradient concentration of SP co-cultured with PC12. An excerpt: Safety evaluation: The gradient concentration of SP was co-cultured with nerve cell line PC12 to evaluate its cytotoxicity in vitro. At the same time, the heart, liver, spleen, lung and kidney tissues of mice in the pharmacodynamic test of orthotopic tumor were dissected and fixed in PBS solution of 4% paraformaldehyde, paraffin-embedded sections were made, stained with HE, observed and photographed under a microscope. the experimental results are shown in FIG. 10.

A further data set concerns SP antibody. Put plainly: competition ELISA for binding of SP antibody to SP fixed on 96-well plate. To be noted: without plasma incubation. Here is the method:
The specific operation was as follows: 0.1 μg SP-PEG-DSPE was added to each well of ELISA plate, left overnight at room temperature, washed with PBS for 3 times, sealed with 3% BSA for 1 h, and the BSA solution was sucked off Added SP antibody, incubated at 37° C. for 1 h, washed with PBS for three times, added liposome incubated with serum or PBS in advance and diluted in gradient, incubated at 37° C. for 1 h, washed with PBS for three times, added corresponding horseradish peroxidase labeled secondary antibody, reacted with TMB chromogenic solution for 3-15 min after 1 h, stopped the reaction with 2 M H2SO4, and measured its absorbance value at 450 nm wavelength.
A general note: ELISA stands for enzyme-linked immunosorbent assay.

Turning to `COc1cccc2c1C(=O)c1c(O)c3c(c(O)c1C2=O)C[C@@](O)(C(=O)CO)C[C@@H]3O[C@H]1C[C@H](N)[C@H](O)[C@H](C)O1` [DOX, adriamycin], the median survival time in the data set with orthotopic U87 glioma amounted to 31 days.

Take `CC[C@H](C)[C@H](NC(=O)[C@H](C)NC(=O)CNC(=O)[C@H](CCCCN)NC(=O)[C@H](CC(N)=O)NC(=O)[C@H](CO)NC(=O)CN)C(=O)N[C@H](C(=O)NCC(=O)N[C@@H](CC(C)C)C(=O)N[C@@H](CCSC)C(N)=O)[C@@H](C)CC` [SP] (H-GSNKGAIIGLM-NH2): the cytotoxicity entry in the data set with neural cell line PC12 is recorded as “did not show cytotoxicity”. For the same compound, the “competition for interaction between SP and antibody” value in the data set on SP antibody was “can compete for the interaction between SP and antibody”.
